Laboratory results reported in patent US8853437B2, “Anti-inflammatory compounds” (The University of Tokyo, priority 2009, dated 2014).

Tests used:
[1] = test system: infiltration of neutrophil; assay: zymosan peritonitis model; format: in vivo, mouse C57BL/6J; conditions: for suppressing effect for other cell group (macrophage etc.): 10 ng (FIG. 4C); for neutrophil suppressing activity compared with dexamethasone: 10 ng compound versus 10 μg dexamethasone (FIG. 4A, 4C); for dose dependence of activity in peritonitis model: Example 4, 1 ng or 10 ng/mouse (FIG. 4A(b), 4D); for activities of suppressing infiltration of neutrophil at an inflammation initial stage: low dose of 10 ng (FIG. 4C)
Experimental: For an inflammation model, zymosan peritonitis elicited by intraperitoneally administering zymosan being a cell wall component of yeast was used. Since an exudate in an abdominal cavity can be recovered, the present model is a model suitable for analyzing cytokines and eicosanoids.
Zymosan A (Wako Pure Chemical Industries, Ltd.) was suspended in a physiological saline to 1 mg/mL, and the suspension was warmed at 37° C. for 30 minutes. Thereafter, this zymosan A solution was vortexed, and returned to room temperature. The compound synthesized in the previous Example, 17,18-diHEPE was taken into a 1.5 mL tube, and a solvent was vaporized with nitrogen to complete dryness and, thereafter, a physiological saline was added to dissolve it. Then, 100 μL of this compound solution was injected (1 ng or 10 ng/mouse) through a tail vein of C57BL/6J mouse (7 weeks old, mail: CLEA Japan, Inc.). As a control, a group in which only a physiological saline was injected, and a group in which dexamethasone (10 μg/mouse) being an anti-inflammatory steroid was injected, were used. After about 2 minutes, 1 mL of a zymosan A solution was intraperitoneally administered. After 2 hours, cells exuded into an abdominal cavity were recovered into a tube with a PBS, and the cell number was counted. Thereafter, this tube was centrifuged at 1200 rpm and 4° C. for 5 minutes to remove the supernatant, a precipitate (pellet) was suspended in PBS, and a population was analyzed by three-color staining of FACS.
Abdominal cavity cells were adjusted to 2.5×10^6 cells/mL, and 200 μL was placed into a 5 mL round-bottom tube (BDFalcon) (5×10^5 cells/tube). To this tube was added an anti-mouse CD16/CD32 antibody (0.5 mg/mL; BDBiosciences) at 1 μL per tube, and this was incubated at room temperature for 10 minutes. To this tube was added a staining antibody mix (prepared by diluting 1.0 μL of FITC bound anti-mouse F4/80 antibody (0.5 mg/mL; eBiosciences), 0.5 μL of PE bound anti-mouse Ly-6G & Ly-6C antibody (0.2 mg/mL; eBiosciences) and 0.5 μL of PerCP-Cy5.5 bound anti-mouse CD11b antibody (0.2 mg/mL; eBiosciences) in 50 μL of PBS, per sample) at 50 μL/tube, and this was incubated at room temperature for 15 minutes under light shielding. Measurement was performed by FACS Calibur (BDBiosciences). […]

[2] = test system: neutrophil which have infiltrated into lung; assay: acute lung damage model (intrabronchial hydrochloric acid); format: in vivo, mouse C57BL/6J; conditions: 10 ng via tail vein; BAL 12 hours after hydrochloric acid (FIG. 4E)
Experimental: One hundred μL of a compound 17,18-diHEPE dissolved in a physiological saline was injected through a tail vein of a C57BL/6J mouse (7 weeks old, male; CLEA Japan, Inc.). After 15 minutes, this mouse was anesthetized by intraperitoneally administering a mixed solution of ketamine (Daiichi Sankyo Propharma) and xylazine (Bayer Medical Ltd.), a trachea was exposed, and 25 μL of hydrochloric acid (pH 1.0, 0.1 N; SIGMA) was administered into a left bronchium. As a control, a group in which only a physiological saline was injected and, after anesthesia, hydrochloric acid was administered into a left bronchium (saline/HCl), and a non-treated group (intact) were used. After 12 hours, this mouse was slaughtered, and bronchial alveolus washing (BAL) was performed with 0.7 mL of PBS two times. The cell number in the BAL solution was counted and a population of cells was quantitated by simple Giemsa staining using a simple Giemsa staining solution Diffquick (Sysmex Corporation).

SMILES | suppression of infiltration of neutrophil ([1]; 10 ng/mouse via tail vein, abdominal cavity cells recovered 2 hours after zymosan, FACS (FIG. 4A)) | IC40 (dose versus decrease in the neutrophil number) ([1]; calculated from graph FIG. 4F) | suppressing effect for other cell group (macrophage etc.) [1] | neutrophil suppressing activity compared with dexamethasone [1] | dose dependence of activity in peritonitis model [1] | activities of suppressing infiltration of neutrophil at an inflammation initial stage [1] | neutrophil-specific infiltration suppressing activity [2]
CCC(O)C(O)/C=C/C=C/C=C\C/C=C\C/C=C\CCCC(=O)O (centres unmarked) [17,18-diHEPE, 17,18-dihydroxyeicosapentaenoic acid] | about 40% | approximately 8 ng | – | – | – | – | –
CCC(O)C(O)/C=C/C=C/C=C\C/C=C\C/C=C\CCCC(=O)O (single isomer, unassigned) [peak 6, 17,18-diHEPE] | – | – | not recognized | equivalent to 10 μg of dexamethasone | dose-dependent | recognized | recognized
CCC(O)C(O)/C=C/C=C/C=C\C/C=C\C/C=C\CCCC(=O)O (single isomer, unassigned) [peak 5, 17,18-diHEPE] | – | – | not recognized | equivalent to 10 μg of dexamethasone | dose-dependent | recognized | –
